Measured values taken from ChEMBL document CHEMBL3044888, “Fungicidal activity of indole derivatives against some plant pathogenic fungi” (J Pestic Sci, 2010).
Values after ≈ are worked out from the molar mass of the structure shown.

Legend:
Rhizoctonia solani [1] = experiment: In vivo effect on peroxidase activity in Rhizoctonia solani assessed as DNA content at 2 times of IC50 concentration (reference value: 24 +/- 0.7 mg/l); format: functional
Rhizoctonia solani [2] = experiment: In vivo effect on peroxidase activity in Rhizoctonia solani assessed as DNA content at 1 times of IC50 concentration (reference value: 24 +/- 0.7 mg/l); format: functional
Rhizoctonia solani [3] = experiment: In vivo effect on peroxidase activity in Rhizoctonia solani assessed as RNA content at 0.1 times of IC50 concentration (reference value: 25 +/- 0.7 mg/l); format: functional
[4] = Inhibition of peroxidase activity in Pythium debaryanum; design: species or system Globisporangium debaryanum
Peroxidase = target: T1, Peroxidase (Macrophomina phaseolina (strain MS6) (Charcoal rot fungus), UniProt K2RV19); experiment: Activation of peroxidase activity in Macrophomina phaseoli
T1 sequence (K2RV19 whole entry): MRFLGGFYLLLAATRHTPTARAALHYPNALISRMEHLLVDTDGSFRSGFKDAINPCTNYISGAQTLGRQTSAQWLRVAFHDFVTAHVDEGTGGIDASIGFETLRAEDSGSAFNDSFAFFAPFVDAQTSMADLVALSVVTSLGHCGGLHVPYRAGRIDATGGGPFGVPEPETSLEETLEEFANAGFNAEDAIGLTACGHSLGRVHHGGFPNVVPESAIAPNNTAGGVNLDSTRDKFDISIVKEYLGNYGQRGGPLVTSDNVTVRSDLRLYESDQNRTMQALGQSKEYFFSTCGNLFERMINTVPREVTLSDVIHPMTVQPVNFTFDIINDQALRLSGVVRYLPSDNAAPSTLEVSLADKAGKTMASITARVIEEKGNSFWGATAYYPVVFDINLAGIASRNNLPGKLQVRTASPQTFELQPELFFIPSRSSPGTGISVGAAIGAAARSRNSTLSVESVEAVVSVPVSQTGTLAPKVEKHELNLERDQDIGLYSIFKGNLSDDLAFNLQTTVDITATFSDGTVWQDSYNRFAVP

[5] = system: Globisporangium debaryanum; experiment: Inhibition of peroxidase activity in Pythium debaryanum at 2 times of IC50 concentration
[6] = system: Globisporangium debaryanum; experiment: Inhibition of peroxidase activity in Pythium debaryanum at 1 times of IC50 concentration
[7] = system: Globisporangium debaryanum; experiment: Inhibition of peroxidase activity in Pythium debaryanum at 0.1 times of IC50 concentration
[8] = Inhibition of polyphenoloxidase activity in Pythium debaryanum; design: species or system Globisporangium debaryanum
Fusarium culmorum [9] = experiment: Fungicidal activity against Fusarium culmorum assessed as inhibition of hyphal growth by radial growth test; format: functional, organism-based
Rhizoctonia solani [10] = experiment: Inhibition of peroxidase activity in Rhizoctonia solani at 0.1 times of IC50 concentration
[11] = target: T2, Peroxidase (Macrophomina phaseolina (strain MS6) (Charcoal rot fungus)) (UniProt K2RV19); experiment: Inhibition of peroxidase activity in Macrophomina phaseoli at 2 times of IC50 concentration
T2 sequence (whole entry): T1 sequence (K2RV19 whole entry)

[12] = target: T2, Peroxidase (Macrophomina phaseolina (strain MS6) (Charcoal rot fungus)); experiment: Inhibition of peroxidase activity in Macrophomina phaseoli at 1 times of IC50 concentration
[13] = target: T2, Peroxidase (Macrophomina phaseolina (strain MS6) (Charcoal rot fungus)); experiment: Inhibition of peroxidase activity in Macrophomina phaseoli at 0.5 times of IC50 concentration
[14] = Activation of polyphenoloxidase activity in Pythium debaryanum; design: species or system Globisporangium debaryanum
[15] = Inhibition of polyphenoloxidase activity in Rhizoctonia solani
Fusarium culmorum [16] = experiment: Inhibition of peroxidase activity in Fusarium culmorum at 2 times of IC50 concentration
[17] = Inhibition of peroxidase activity in Fusarium culmorum
Fusarium culmorum [18] = experiment: Inhibition of peroxidase activity in Fusarium culmorum at 1 times of IC50 concentration

CC(=O)n1c(-c2ccccc2)cc2ccccc21
Activity (Rhizoctonia solani [1]): 34.7 mg/L
Activity (Rhizoctonia solani [2]): 31.4 mg/L
Activity (Rhizoctonia solani [3]): 23.6 mg/L
IC50 [4]: 96.14 µg/mL (≈ 409 µM)
AC50 (Peroxidase): < 25.1 µM
inhibition [5]: 25.7%
inhibition [6]: 19.1%
inhibition [7]: 0%
IC50 [8]: 45.6 µg/mL (≈ 194 µM)
IC50 (Fusarium culmorum [9]): 86.7 µg/mL (≈ 368 µM)

c1ccc(-c2cc3ccccc3[nH]2)cc1 [2-PHENYL-1H-INDOLE]
Activity (Rhizoctonia solani [1]): 27 mg/L
Activity (Rhizoctonia solani [2]): 30.9 mg/L
Activity (Rhizoctonia solani [3]): 29.4 mg/L
inhibition (Rhizoctonia solani [10]): 0%
inhibition [7]: 19.3%
inhibition [11]: 54.3%
inhibition [12]: 40.7%
inhibition [13]: 26.7%
AC50 [14]: 35.1 µg/mL (≈ 182 µM)
IC50 [15]: 80.3 µg/mL (≈ 416 µM)
IC50 (Fusarium culmorum [9]): 67.4 µg/mL (≈ 349 µM)
inhibition (Fusarium culmorum [16]): 69.2%
IC50 [17]: 49.9 µg/mL (≈ 258 µM)
inhibition (Fusarium culmorum [18]): 60.1%
